Laboratory results from ChEMBL document CHEMBL1145768, “Microsomal triglyceride transfer protein inhibitors: discovery and synthesis of alkyl phosphonates as potent MTP inhibitors and cholesterol lowering agents” (Bioorg Med Chem Lett, 2003).
Calls of active or inactive are those of the source. No cut-off for these calls is given here.

Tests used:
[1] = biological target: T1, Microsomal triglyceride transfer protein large subunit (Bos taurus, UniProt P55156); assay: Inhibitory activity against microsomal triglyceride transfer protein (MTP)
T1 sequence (P55156 whole entry): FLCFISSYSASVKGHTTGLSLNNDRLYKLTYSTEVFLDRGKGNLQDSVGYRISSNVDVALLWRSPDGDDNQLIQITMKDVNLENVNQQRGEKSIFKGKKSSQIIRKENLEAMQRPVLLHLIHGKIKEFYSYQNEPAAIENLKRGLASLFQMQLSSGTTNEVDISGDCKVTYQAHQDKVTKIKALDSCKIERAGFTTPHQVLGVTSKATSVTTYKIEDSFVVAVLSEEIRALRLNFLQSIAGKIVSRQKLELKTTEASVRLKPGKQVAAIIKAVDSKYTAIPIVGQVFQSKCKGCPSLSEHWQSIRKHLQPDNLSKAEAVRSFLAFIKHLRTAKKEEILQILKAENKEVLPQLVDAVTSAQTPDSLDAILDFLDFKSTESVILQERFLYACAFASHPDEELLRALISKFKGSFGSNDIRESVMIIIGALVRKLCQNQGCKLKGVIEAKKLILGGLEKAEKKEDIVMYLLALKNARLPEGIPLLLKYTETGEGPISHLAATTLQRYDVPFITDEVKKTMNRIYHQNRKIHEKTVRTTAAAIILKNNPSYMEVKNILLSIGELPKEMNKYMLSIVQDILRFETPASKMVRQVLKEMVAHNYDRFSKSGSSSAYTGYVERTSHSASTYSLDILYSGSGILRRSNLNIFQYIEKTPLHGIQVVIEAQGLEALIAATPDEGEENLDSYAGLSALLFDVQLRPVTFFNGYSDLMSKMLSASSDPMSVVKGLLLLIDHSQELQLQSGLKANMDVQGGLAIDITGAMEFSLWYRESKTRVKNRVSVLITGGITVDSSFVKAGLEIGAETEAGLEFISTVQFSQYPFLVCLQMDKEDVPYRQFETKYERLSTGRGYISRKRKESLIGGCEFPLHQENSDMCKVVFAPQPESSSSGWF

HepG2 [2] = assay: Effective concentration against apolipoprotein B (ApoB) from HepG2 cell using apolipoprotein secretion assay; assay type: functional, cell-based; conditions: Homo sapiens
HepG2 [3] = assay: Effective concentration against apolipoprotein A1 (ApoA1) from HepG2 cell using apolipoprotein secretion assay; assay type: functional, cell-based; conditions: Homo sapiens
Cricetinae gen. sp. [4] = assay: Inhibitory activity against plasma cholesterol level after oral administration (15 mg/kg/day) in hamsters; assay type: functional, Cricetulus griseus
HepG2 [5] = assay: Effective concentration against secretion of apolipoprotein B (ApoB) from HepG2 cell using apolipoprotein secretion assay; assay type: functional, cell-based; conditions: Homo sapiens
Rattus norvegicus [6] = assay: Effective dose for inhibition of lipoprotein production (in vivo) after intravenous administration using fasted triton rat assay; assay type: functional
HepG2 [7] = assay: Effective concentration against secretion of apolipoprotein A1 (ApoA1) from HepG2 cell using apolipoprotein secretion assay; assay type: functional, cell-based; conditions: Homo sapiens
Rattus norvegicus [8] = assay: Ability to inhibit lipoprotein production (in vivo) after oral administration (50 mg/kg) using fasted triton rat assay;IA: inactive; assay type: functional, organism-based
Cricetinae gen. sp. [9] = assay: Inhibitory activity against plasma cholesterol level after oral administration (15 mg/kg/day) over 3 days in hamsters; assay type: functional, Cricetulus griseus
Rattus norvegicus [10] = assay: Effective dose for inhibition of lipoprotein production (in vivo) after oral administration using fasted triton rat assay; assay type: functional
Cricetinae gen. sp. [11] = assay: Inhibitory activity against plasma cholesterol level after oral administration (qd) (100 mg/kg) for 3 days in hamsters; assay type: functional, Cricetulus griseus
Rattus norvegicus [12] = assay: Inhibitory activity (25 mg/kg) against hepatic lipoprotein secretion; assay type: functional

SMILES	IC50 [1]	other results
O=C1c2ccccc2CN1C1CCN(CCC(c2ccccc2)c2ccccc2)CC1	2.2 µM	–
CCCCOP(=O)(CCCSc1nc2cc(OCC)ccc2[nH]1)OCCCC	10 µM	–
CCCCNC(=O)C1(CCCCP(=O)(OCCCC)OCCCC)c2ccccc2-c2ccccc21	0.4 µM	–
CCCCOP(=O)(CCCOc1cccc2ccccc12)OCCCC	30 µM	–
CCCCOP(=O)(CCCSc1nc(-c2ccccc2)c(-c2ccccc2)[nH]1)OCCCC	> 30 µM	–
CCCCOP(=O)(CCCCC1(C(=O)NCc2ccccn2)c2ccccc2-c2ccccc21)OCCCC	0.47 µM	–
CCCCOP(=O)(CCCSc1nc2ccc(OCC)cc2s1)OCCCC	4.5 µM	EC50 (HepG2 [2]): 3.9 µM; EC50 (HepG2 [3]): 13.2 µM
CCCCOP(=O)(CCCSc1nc(-c2ccccc2)c(-c2ccccc2)o1)OCCCC	6 µM	–
CCCCOP(=O)(CCCSc1cccs1)OCCCC	> 100 µM	–
CCCCOP(=O)(CCCCSc1nc2ccc(OCC)cc2s1)OCCCC	12 µM	–
CCCCOP(=O)(CCCCC1(C(=O)NCCN2CCOCC2)c2ccccc2-c2ccccc21)OCCCC	0.5 µM	–
O=C(NC1CCN(CCCC2(C(=O)NCC(F)(F)F)c3ccccc3-c3ccccc32)CC1)c1ccccc1	0.23 µM	EC50 (HepG2 [2]): 0.08 µM; EC50 (HepG2 [3]): > 3.3 µM
CCCCOP(=O)(CCCSc1nc2ccc(OCC)cc2o1)OCCCC	5 µM	–
CC(C)OP(=O)(CCCCC1(C(=O)NCC(F)(F)F)c2ccccc2-c2ccccc21)OC(C)C	0.28 µM	–
CCCCOP(=O)(CCCSc1nc2ccc(OCC)cc2n1C)OCCCC	6 µM	–
CCCCOP(=O)(CCCCC1(C(=O)OC)c2ccccc2-c2ccccc21)OCCCC	0.45 µM	–
CCCCOP(=O)(CCCCCSc1nc2ccc(OCC)cc2s1)OCCCC	6 µM	–
CCCNC(=O)C1(CCCCP(=O)(OCC)OCC)c2ccccc2-c2ccccc21	0.135 µM	–
CCCCOP(=O)(CCCSc1ccncc1)OCCCC	27 µM	–
CCCCOP(=O)(CCCOc1ccccc1)OCCCC	4.8 µM	–
CCOP(=O)(CCCCC1(C(=O)NCC(F)(F)F)c2ccccc2-c2ccccc21)OCC	0.145 µM	–
C=CCC1(C(=O)NCC)c2ccccc2-c2ccccc21	2.2 µM	–
CCCCOP(=O)(CCCCC1(C(=O)NCc2ccccc2)c2ccccc2-c2ccccc21)OCCCC	0.25 µM	EC50 (HepG2 [5]): 0.058 µM; EC50 (HepG2 [7]): > 1 µM
CCCCOP(=O)(CCCCC1(C(=O)NCc2ccc(N)cc2)c2ccccc2-c2ccccc21)OCCCC	0.89 µM	–

Stronger by IC50 [1], values ahead:

IC50 [1]	SMILES	other results
0.09 µM	CCCOP(=O)(CCCCC1(C(=O)NCC(F)(F)F)c2ccccc2-c2ccccc21)OCCC	–
0.085 µM	O=C(NCC(F)(F)F)C1(CCCCP(=O)(OCc2ccncc2)OCc2ccncc2)c2ccccc2-c2ccccc21	–
0.065 µM	CCCCOP(=O)(CCCCCC1(C(=O)NCC(F)(F)F)c2ccccc2-c2ccccc21)OCCCC	–
0.055 µM	CC(C)COP(=O)(CCCCC1(C(=O)NCC(F)(F)F)c2ccccc2-c2ccccc21)OCC(C)C	–
0.045 µM	Cc1cccc(CCCOP(=O)(CCCCC2(C(=O)NCC(F)(F)F)c3ccccc3-c3ccccc32)OCCCc2cccc(C)n2)n1	–
0.045 µM	CCCCOP(=O)(CCCCCCC1(C(=O)NCC(F)(F)F)c2ccccc2-c2ccccc21)OCCCC	–
0.04 µM	O=C(NCC(F)(F)F)C1(CCCCP(=O)(OCCc2ccccn2)OCCc2ccccn2)c2ccccc2-c2ccccc21	–
0.033 µM	CC(C)(C)COP(=O)(CCCCC1(C(=O)NCC(F)(F)F)c2ccccc2-c2ccccc21)OCC(C)(C)C	–
0.027 µM	O=C(NCC(F)(F)F)C1(CCCCP(=O)(OCc2ccccn2)OCc2ccccn2)c2ccccc2-c2ccccc21	–
0.025 µM	O=C(NCC(F)(F)F)C1(CCCCP(=O)(OCCCc2ccccn2)OCCCc2ccccn2)c2ccccc2-c2ccccc21	Inhibition (Cricetinae gen. sp. [4]): 15%
0.024 µM	O=C(NCC(F)(F)F)C1(CCCCP(=O)(OCc2cccnc2)OCc2cccnc2)c2ccccc2-c2ccccc21	–
0.022 µM	CCCCOP(=O)(CCCCC1(C(=O)NCC(F)(F)F)c2ccccc2-c2ccccc21)OCCCC	EC50 (HepG2 [5]): 0.007 µM; ED30 (Rattus norvegicus [6]): 4 mg/kg; ED30 (Rattus norvegicus [10]): 8 mg/kg; EC50 (HepG2 [7]): > 3.3 µM; Inhibition (Cricetinae gen. sp. [11]): 15%
0.021 µM	CCCCOP(=O)(CCCCC1(C(=O)NCCc2ccc(OC)cc2)c2ccccc2-c2ccccc21)OCCCC	EC50 (HepG2 [5]): 0.023 µM; EC50 (HepG2 [7]): > 0.33 µM; Inhibition (Rattus norvegicus [12]): 15%
0.014 µM	CCCCOP(=O)(CCCCC1(C(=O)NCCC)c2ccccc2-c2ccccc21)OCCCC	EC50 (HepG2 [5]): 0.1 µM; ED30 (Rattus norvegicus [6]): 15 mg/kg; EC50 (HepG2 [7]): 8 µM; Activity (Rattus norvegicus [8]): inactive
0.011 µM	Cc1cccc(COP(=O)(CCCCC2(C(=O)NCC(F)(F)F)c3ccccc3-c3ccccc32)OCc2cccc(C)n2)n1	Inhibition (Cricetinae gen. sp. [9]): 35%
